Results as given in the NIST ThermoML archive (doi:10.1021/je500320c).

Test: an = ratio of the nth substance listed
Conditions: 101 kPa, Liquid, a1 = 2

NC(N)=O [urea] + C[N+](C)(C)CCO.[Cl-]
Conditions | mass density [kg/m3] | viscosity [mPa·s]
298.15 K | 1197.9 | 1571
303.15 K | 1195.2 | 953.7
308.15 K | 1192.7 | 608.4
313.15 K | 1190.1 | 403.2
318.15 K | 1187.5 | 277.2
323.15 K | 1184.9 | 195.9
328.15 K | 1182.3 | 143.6
333.15 K | 1179.7 | 107.7
